{"source": "ChEMBL document CHEMBL1141058", "about": "“Squaric monoamide monoester as a new class of reactive immunization hapten for catalytic antibodies” (Bioorg Med Chem Lett, 2005)", "key": {"[1]": {"tested_on": "Monoclonal antibody (mAb) 3C8", "assay": "Ratio of reaction constant of paraoxon hydrolysis catalysed by monoclonal antibody 3C8 to that Michaelis-Menten's constant"}, "[2]": {"tested_on": "Monoclonal antibody (mAb) 3C8", "assay": "Ratio of reaction constant of paraoxon hydrolysis catalysed by monoclonal antibody 3C8 to that of uncatalysed"}, "[3]": {"tested_on": "Monoclonal antibody (mAb) 2D4", "assay": "Ratio of reaction constant of paraoxon hydrolysis catalysed by monoclonal antibody 2D4 to that Michaelis-Menten's constant"}, "[4]": {"tested_on": "Monoclonal antibody (mAb) 3C8", "assay": "Michaelis-Menten constant of monoclonal antibody, 3C8 for paraoxon hydrolysis determined in 50 mM bicine with 50 mM NaCl, pH 8.0, 5% DMSO cosolvent at 23 degree C"}, "[5]": {"tested_on": "Monoclonal antibody (mAb) 3C8", "assay": "Reaction constant of paraoxon hydrolysis catalyse by monoclonal antibody, 3C8 determined in 50 mM bicine with 50 mM NaCl, pH 8.0, 5% DMSO cosolvent at 23 degree C"}, "[6]": {"tested_on": "Monoclonal antibody (mAb) 2D4", "assay": "Ratio of reaction constant of paraoxon hydrolysis catalysed by monoclonal antibody 2D4 to that of uncatalysed"}, "[7]": {"tested_on": "Monoclonal antibody (mAb) 2D4", "assay": "Reaction constant of paraoxon hydrolysis catalyse by monoclonal antibody, 2D4 determined in 50 mM bicine with 50 mM NaCl, pH 8.0, 5% DMSO cosolvent at 23 degree C"}, "[8]": {"tested_on": "Monoclonal antibody (mAb) 2D4", "assay": "Michaelis-Menten's constant of monoclonal antibody, 2D4 for paraoxon hydrolysis determined in 50 mM bicine with 50 mM NaCl, pH 8.0, 5% DMSO cosolvent at 23 degree C"}}}
{"compound": "CCOc1c(Nc2ccc(NC(=O)CCCC(=O)O)cc2)c(=O)c1=O", "values": [{"measurement": "k cat/Km", "setting": "[1]", "value": 0.0262, "unit": "M⁻¹ s⁻¹"}, {"measurement": "k cat/Kuncat", "setting": "[2]", "value": 2060}, {"measurement": "k cat/Km", "setting": "[3]", "value": 0.0322, "unit": "M⁻¹ s⁻¹"}, {"measurement": "Km", "setting": "[4]", "value": 1290, "unit": "µM"}, {"measurement": "k cat", "setting": "[5]", "value": "3.38e-05", "unit": "s⁻¹"}, {"measurement": "k cat/Kuncat", "setting": "[6]", "value": 2310}, {"measurement": "k cat", "setting": "[7]", "value": "3.8e-05", "unit": "s⁻¹"}, {"measurement": "Km", "setting": "[8]", "value": 1180, "unit": "µM"}]}
